1 compound from ChEMBL document CHEMBL4414609, “High-Affinity Alkynyl Bisubstrate Inhibitors of Nicotinamide N-Methyltransferase (NNMT)” (J Med Chem, 2019) can be followed below.

Series [1] deals with DNA (cytosine-5)-methyltransferase 3A (Homo sapiens, UniProt Q9Y6K1). The series is described as follows: Inhibition of human DNMT3a expressed in insect sf9 cells assessed as reduction in methylated poly(dI-dC)-Poly(dI-dC) level using poly(dI-dC)-poly(dI-dC) as substrate in presence of [3H] SAM incubated for 10 mins by scintillation counting.
DNA (cytosine-5)-methyltransferase 3A, sequence (Q9Y6K1 whole entry, looked up): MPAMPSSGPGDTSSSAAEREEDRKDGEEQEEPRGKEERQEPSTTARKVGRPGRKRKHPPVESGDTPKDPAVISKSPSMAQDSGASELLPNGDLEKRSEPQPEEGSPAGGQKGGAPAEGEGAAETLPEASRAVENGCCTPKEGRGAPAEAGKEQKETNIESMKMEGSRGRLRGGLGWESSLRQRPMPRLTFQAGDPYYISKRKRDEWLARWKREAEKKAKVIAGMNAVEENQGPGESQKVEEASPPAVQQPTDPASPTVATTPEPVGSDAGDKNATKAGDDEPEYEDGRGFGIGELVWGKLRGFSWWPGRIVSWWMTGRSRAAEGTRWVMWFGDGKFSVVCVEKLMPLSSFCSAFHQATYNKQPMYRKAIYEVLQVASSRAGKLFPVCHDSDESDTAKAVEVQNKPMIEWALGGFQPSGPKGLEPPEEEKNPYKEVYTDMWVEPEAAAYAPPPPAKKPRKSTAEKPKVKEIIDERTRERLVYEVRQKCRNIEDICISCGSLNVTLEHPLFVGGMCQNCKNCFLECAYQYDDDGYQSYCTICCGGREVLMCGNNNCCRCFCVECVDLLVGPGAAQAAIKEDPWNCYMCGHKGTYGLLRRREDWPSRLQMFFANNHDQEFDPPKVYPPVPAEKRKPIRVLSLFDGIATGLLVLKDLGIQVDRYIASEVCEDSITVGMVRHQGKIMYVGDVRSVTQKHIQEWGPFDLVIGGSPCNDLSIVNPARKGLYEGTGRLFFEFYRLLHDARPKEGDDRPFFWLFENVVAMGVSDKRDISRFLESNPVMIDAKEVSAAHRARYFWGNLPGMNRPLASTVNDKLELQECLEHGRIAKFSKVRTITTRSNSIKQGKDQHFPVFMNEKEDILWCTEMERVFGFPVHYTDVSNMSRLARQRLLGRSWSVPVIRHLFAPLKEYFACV
The target of series [2] is INMT (indolethylamine N-methyltransferase) (Homo sapiens, UniProt O95050). The series is described as follows: Inhibition of wild type human INMT expressed in Escherichia coli at 1 uM using tryptamine as substrate in presence of SAM incubated for 30 mins by MTase-Glo assay relative to control. Conditions: probe tryptamine.
INMT (indolethylamine N-methyltransferase), sequence (O95050 whole entry): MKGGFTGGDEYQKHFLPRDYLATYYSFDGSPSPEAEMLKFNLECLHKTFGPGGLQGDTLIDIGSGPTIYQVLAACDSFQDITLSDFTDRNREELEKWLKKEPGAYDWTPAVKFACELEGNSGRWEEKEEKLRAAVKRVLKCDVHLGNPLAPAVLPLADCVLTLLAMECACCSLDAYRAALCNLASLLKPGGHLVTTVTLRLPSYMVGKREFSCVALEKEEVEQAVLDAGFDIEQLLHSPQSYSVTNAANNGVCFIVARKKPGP
The target of series [3] is Histone-lysine N-methyltransferase SETDB1 (Homo sapiens, UniProt Q15047). The series is described as follows: Inhibition of human SETDB1 expressed in sf9 insect cells assessed as reduction in methylated histone H3 full length level using histone H3 full length as substrate in presence of [3H] SAM incubated for 30 mins by scintillation counting.
For series [4], the target named is Indolethylamine N-methyltransferase (Homo sapiens, UniProt O95050). The series is described as follows: Inhibition of wild type human INMT expressed in Escherichia coli using tryptamine as substrate in presence of SAM incubated for 30 mins by MTase-Glo assay.
Indolethylamine N-methyltransferase, sequence (O95050 whole entry): as above
Series [5] has as its target T1, GNMT (glycine N-methyltransferase) (Homo sapiens, UniProt Q14749).
T1 sequence (Q14749 whole entry): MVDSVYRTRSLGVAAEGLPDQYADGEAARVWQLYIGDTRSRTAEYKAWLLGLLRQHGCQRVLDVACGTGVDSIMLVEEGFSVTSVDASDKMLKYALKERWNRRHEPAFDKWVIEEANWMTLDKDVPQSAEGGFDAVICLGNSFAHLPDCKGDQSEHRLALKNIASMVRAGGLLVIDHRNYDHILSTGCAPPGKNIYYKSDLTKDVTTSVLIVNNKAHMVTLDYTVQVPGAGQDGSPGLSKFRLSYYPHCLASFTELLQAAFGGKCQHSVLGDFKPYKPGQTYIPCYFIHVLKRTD
The series is described as follows: Inhibition of human GNMT expressed in Escherichia coli at 10 uM assessed as reduction in SAH level using glycine as substrate in presence of SAM incubated for 30 mins by LC-MS/MS analysis relative to control. As to conditions: recombinant human GNMT expressed in Escherichia coli, probe glycine.

Series [6] deals with T2, Histone-lysine N-methyltransferase EHMT2 (Homo sapiens, UniProt Q96KQ7).
T2 sequence (Q96KQ7 whole entry): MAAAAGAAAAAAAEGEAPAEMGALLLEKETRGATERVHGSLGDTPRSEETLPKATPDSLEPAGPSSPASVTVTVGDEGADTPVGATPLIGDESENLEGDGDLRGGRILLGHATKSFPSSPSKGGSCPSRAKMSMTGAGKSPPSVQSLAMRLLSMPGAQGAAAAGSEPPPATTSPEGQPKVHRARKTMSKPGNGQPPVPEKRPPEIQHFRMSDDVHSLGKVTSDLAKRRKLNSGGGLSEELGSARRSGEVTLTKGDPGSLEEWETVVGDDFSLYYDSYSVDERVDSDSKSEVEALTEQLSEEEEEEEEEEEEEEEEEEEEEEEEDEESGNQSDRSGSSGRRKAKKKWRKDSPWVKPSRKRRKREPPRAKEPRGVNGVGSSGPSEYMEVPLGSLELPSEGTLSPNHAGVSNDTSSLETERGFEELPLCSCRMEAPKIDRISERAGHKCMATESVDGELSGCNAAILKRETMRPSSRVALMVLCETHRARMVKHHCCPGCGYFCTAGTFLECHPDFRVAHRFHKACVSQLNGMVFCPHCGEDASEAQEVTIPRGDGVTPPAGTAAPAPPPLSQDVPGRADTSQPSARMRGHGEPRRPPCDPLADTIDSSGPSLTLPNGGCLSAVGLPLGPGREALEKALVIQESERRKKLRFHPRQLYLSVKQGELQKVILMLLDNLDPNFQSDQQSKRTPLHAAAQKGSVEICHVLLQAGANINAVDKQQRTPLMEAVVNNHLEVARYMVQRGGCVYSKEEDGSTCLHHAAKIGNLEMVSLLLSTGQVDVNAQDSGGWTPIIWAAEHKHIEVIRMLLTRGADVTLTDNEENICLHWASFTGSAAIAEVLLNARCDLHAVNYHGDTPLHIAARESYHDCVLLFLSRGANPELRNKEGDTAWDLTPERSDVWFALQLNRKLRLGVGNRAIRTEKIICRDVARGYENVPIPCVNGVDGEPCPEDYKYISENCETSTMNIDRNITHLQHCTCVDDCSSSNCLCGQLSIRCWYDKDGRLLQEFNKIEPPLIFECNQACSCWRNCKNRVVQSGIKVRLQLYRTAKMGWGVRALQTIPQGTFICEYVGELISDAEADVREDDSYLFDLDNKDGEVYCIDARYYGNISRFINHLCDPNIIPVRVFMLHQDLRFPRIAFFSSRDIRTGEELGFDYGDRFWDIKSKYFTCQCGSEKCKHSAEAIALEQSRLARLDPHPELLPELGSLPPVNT
In words: Inhibition of human G9a expressed in Escherichia coli assessed as reduction in methylated histone H3 full length using histone H3 full length level as substrate in presence of [3H] SAM incubated for 120 mins by scintillation counting.

The target in series [7] is T3, Thiopurine S-methyltransferase (Homo sapiens, UniProt P51580).
T3 sequence (P51580 whole entry): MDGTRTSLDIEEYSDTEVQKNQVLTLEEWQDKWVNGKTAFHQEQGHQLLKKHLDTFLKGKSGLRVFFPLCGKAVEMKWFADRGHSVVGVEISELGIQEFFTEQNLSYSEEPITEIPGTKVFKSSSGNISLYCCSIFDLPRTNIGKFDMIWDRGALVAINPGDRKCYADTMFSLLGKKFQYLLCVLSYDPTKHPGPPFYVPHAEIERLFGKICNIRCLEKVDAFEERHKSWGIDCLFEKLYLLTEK
The series is described as follows: Inhibition of human TPMT expressed in Escherichia coli assessed as reduction in SAH level using 6-mercaptopurine as substrate in presence of SAM incubated for 30 mins by LC-MS/MS analysis.

Series [8] concerns the target T4, GAMT (guanidinoacetate N-methyltransferase) (Homo sapiens, UniProt Q14353). In words: Inhibition of human GAMT expressed in Escherichia coli at 1 uM assessed as reduction in SAH level using guanidineacetic acid as substrate in presence of SAM incubated for 30 mins by LC-MS/MS analysis relative to control. Conditions: recombinant human GAMT expressed in Escherichia coli, probe guanidineacetic acid.

Series [9] addresses T5, TPMT (thiopurine S-methyltransferase) (Homo sapiens, UniProt P51580).
T5 sequence (P51580 whole entry): T3 sequence (P51580 whole entry)
In words: Inhibition of human TPMT expressed in Escherichia coli assessed as reduction in SAH level at 10 uM using 6-mercaptopurine as substrate in presence of SAM incubated for 30 mins by LC-MS/MS analysis relative to control. Conditions: recombinant human TPMT expressed in Escherichia coli, probe 6-mercaptopurine.

Series [10] deals with T4, GAMT (guanidinoacetate N-methyltransferase). In words: Inhibition of human GAMT expressed in Escherichia coli at 10 uM assessed as reduction in SAH level using guanidineacetic acid as substrate in presence of SAM incubated for 30 mins by LC-MS/MS analysis relative to control. Conditions: recombinant human GAMT expressed in Escherichia coli, probe guanidineacetic acid.

Molecules are shown by their SMILES.

On to `NC(=O)c1cccc(C#C[C@@H](CC[C@H](N)C(=O)O)C[C@H]2O[C@@H](n3cnc4c(N)ncnc43)[C@H](O)[C@@H]2O)c1`, for which the IC50 in series [1] is 7.6 µM; in series [3], greater than 10 µM; in series [4], 3.4 µM; in [6] it was greater than 10 µM; in series [7], 1 µM. The inhibition at 0.5 h, 1 µM was 14% in [2] and 0% in series [8]. Also, the inhibition at 0.5 h, 10 µM in series [5] was 23%; in [9], 76%; in series [10], 26%.

Usually IC50 stands for the concentration at which inhibition is half-maximal. For orientation: inhibition means the relative decrease from the control value, in per cent.
